Several values for one entry are separate records, joined by “and”; a condition that tells them apart may be missing. Equal entries are not always repeated. Entries after “also recorded” stand apart in the source; their conditions may differ.
How the values were obtained:
[1] = test system: bleomycin-injured mice (pulmonary fibrosis); assay: EGCG treatment of bleomycin-injured mice monitored with Gd-9 MRI; type: in vivo, mouse
Protocol: Gd-9 is a Gd-DOTA derivative with two hydrazine arms synthesized by amide coupling of two tBu-piperazin-1-ylcarbamate groups to 1,4,7,10-tetraazacyclododecane-1,4-bis(tBu-acetate)-4,10-bis(glutaric acid 1-tBu ester), followed by acid deprotection and gadolinium complexation. C57Bl/6 adult male mice at 8 weeks of age received a single intratracheal dose of bleomycin, 1 U/kg body weight (50 μL total volume) as previously described. Pair-wise imaging study of GdCHyd and Gd-9 was carried out in mice at day 14 post bleomycin injury on a 4.7 T MRI with a dose of 100 μmol/kg of each probe. For the treatment study, mice were imaged first at day 10 post bleomycin injury, then treated daily with oral gavage of either epigallocatechin gallate (EGCG, 100 mg/kg) or PBS (vehicle) for 11 days. At day 21 post bleomycin injury, the animals were imaged again. MRI consisted of T1-weighted UTE (TR/TE/flip angle=4 ms/0.011 ms/15°) images acquired prior to and up to 30 minutes following intravenous administration of Gd-9 ([…]). Following the second imaging session, animals were euthanized (60 minutes post injection), and lung tissues were removed for further analysis.
The dual hydrazine probe Gd-9 was first compared to GdCHyd in a head-to head comparison in vivo. Mice were imaged 14 days after bleomycin injury first with Gd-CHyd and then 4 h later with Gd-9. […] Gd-9 was nexted used to monitor response to EGCG treatment in bleomycin-injured mice. Mice were imaged at 10 days after bleomycin injury and then the mice were treated with EGCG (100 mg/kg) or PBS (vehicle) for 11 days, and then the mice were imaged again (FIG. 14).

[2] = Reaction rates with 2-formylpyridine measured by HPLC-ICP-MS (Method A); type: physicochemical; settings: Method a: 2-formylpyridine 1000 μM, probe 25 μM, pH 7.40 PBS
Protocol: Quantitative Measurement of Reaction Rates with Aldehydes: Method A: Reaction Rates of Compounds with 2-Formylpyridine Measured by HPLC-ICP-MS
Reactivity of aldehyde-binding probes were assessed in pH 7.40 phosphate-buffered saline under pseudo-first order conditions with 2-formylpyridine concentration of 1000 μM and probes at 25 μM. Concentrations of unreacted starting material and condensation products were determined at 12 min time intervals based on their relative integrations. The values were fit to a standard first order rate constant linear equation and the rate constant was extracted from the slope.

[3] = Relaxivity measurements in PBS; type: physicochemical; settings: 1.4 T, 37° C.
Protocol: (§1) BSA-ALD (10 mg/mL) or BSA (10 mg/mL) were treated for 24 hours at 37° C. with the corresponding Gd or Mn complex at a range of concentrations (0.01-0.2 mM), with a total volume of 300 μL maintained for all samples. After 24 hours, an aliquot of the solution (50 μL) was used for longitudinal (T1) relaxation measurements, recorded using a Bruker mq60 Minispec at 1.41 T and 37° C. Longitudinal (T1) relaxation times were measured via an inversion recovery experiment using 10 inversions of duration ranging between 0.05×T1 and 10×T1. Solutions (concentration range: 0.1 mM-1.0 mM) in PBS were run in parallel. To measure the relaxivity of BSA-bound species, sodium cyanoborohydride (10 mg) was added to the solution to irreversibly bind the probe to the protein. After a further 2h incubation at 37° C., protein-bound and protein-free solutions were separated by ultrafiltration. Then 200 μL PBS was added to the residue to dissolve the protein. Longitudinal (T1) relaxation times for the bounded species were measured using a Bruker mq60 Minispec at 1.41 T and 37° C. After the measurement, concentration of corresponding metal ion (Gd/Mn) in the residue and filter were both determined using an Agilent 8800 ICP-MS system. Relaxivity (r1) was determined from the slope of a plot of 1/T1 vs metal concentration for 5 concentrations.

BSA-ALD = target: T1, BSA-ALD (Bos taurus, UniProt P02769); assay: Binding yield measurements of Gd^3+ complex with BSA^Ald (ultrafiltration, ICP-MS); set-up: species or system bovine; settings: pH 7.4, PBS, 37° C., 12 h, ultrafiltration 5,000 Da cut-off
T1 construct: made in house; host or cells: no expression host: BSA oxidised chemically with sodium ascorbate, ferric chloride and H2O2, then desalted on PD-10
T1 sequence (P02769 25-607): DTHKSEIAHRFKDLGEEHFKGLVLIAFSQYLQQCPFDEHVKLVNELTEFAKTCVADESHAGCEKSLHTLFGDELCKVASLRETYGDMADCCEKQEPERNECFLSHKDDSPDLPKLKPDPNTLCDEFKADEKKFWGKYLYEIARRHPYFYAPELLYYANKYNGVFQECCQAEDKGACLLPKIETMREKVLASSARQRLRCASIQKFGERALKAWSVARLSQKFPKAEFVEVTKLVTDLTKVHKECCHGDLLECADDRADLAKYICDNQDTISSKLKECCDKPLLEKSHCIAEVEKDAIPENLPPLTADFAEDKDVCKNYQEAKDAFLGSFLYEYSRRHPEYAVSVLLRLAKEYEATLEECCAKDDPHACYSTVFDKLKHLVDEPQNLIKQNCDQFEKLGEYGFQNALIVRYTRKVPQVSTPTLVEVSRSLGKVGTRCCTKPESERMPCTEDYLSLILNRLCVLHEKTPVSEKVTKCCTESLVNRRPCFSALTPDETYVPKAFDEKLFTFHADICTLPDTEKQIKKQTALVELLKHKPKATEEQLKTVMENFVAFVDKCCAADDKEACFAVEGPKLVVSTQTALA
Protocol: FIG. 48. […] Binding concentration of the probes to BSA^Ald (pH 7.4, PBS, 37° C., 12 h) as determined by ICP-MS following an ultrafiltration (5,000 Da cut-off) to separate the protein-bound probe from the unbound probe. Slope gives the binding yield.
(§2) Alternatively, preparation of BSA^Ald and binding of Gd^3+ probe to protein was carried out according to modified procedures. To a solution of bovine serum albumin (BSA) (100 mg) dissolved in phosphate buffered saline (4 mL, pH 7.4, 0.25 mM) was added sodium ascorbate (20 mg), ferric chloride (120 μL, 10 mM) and 20 μL H2O2 (30% w). The reaction was stirred at 37° C. for 24 h, and sodium ascorbate (20 mg) was added repeatedly every 8 h. After 24 h, the protein was purified using PD-10 Sephadex G25 desalting columns (GE Healthcare), eluted with PBS. Protein concentration was assessed using the ‘Micro BCA Protein Assay Kit’ (Thermo Scientific, 23235). Protein carbonyl concentration was determined by ‘Protein Carbonyl Content Assay Kit’ (Sigma-Aldrich, MAK094-1KT). […] The protein solutions were kept at a concentration of 20 mg/mL for further use.

[4] = test system: ECM proteins from fibrotic rat liver; assay: Relaxivity measurements in ECM; type: binding
Protocol: Liver fibrosis was induced in male Sprague Dawley rats by ligation of the common bile duct (CD®, Charles River Labs, Wilmington, MA). Ten days after common bile duct ligation, the fibrotic liver was harvested and sequential extractions were performed using the CNMCS (Cytosol/Nucleus/Membrane/Cytoskeleton) Compartmental Protein Extraction kit (Cytomol, Union City, CA) according to manufacturer's instructions. In brief, frozen tissues (150-200 mg) were homogenized and with solvents provided in the kit to sequentially to remove: cytosolic proteins, nuclear proteins, membrane proteins, and cytoskeletal proteins, leaving a final insoluble fraction enriched for ECM proteins.
Relaxivity Measurements in ECM
The enriched ECM proteins from 800 mg of fibrotic rat liver were suspended in 1 ml PBS. The ECM protein concentration was about 10% (5 mg in a 50 μL aliquot determined by weight after lyophilization). An aliquot of the solution (50 μL) was treated for 2 h at 37° C. with the corresponding molecular probe at a range of concentrations (0.01-0.1 mM) and then longitudinal (T1) relaxation measurements was recorded using a Bruker mq60 Minispec at 1.41 T and 37° C. For the blocking experiment with N2H4, a 100 fold-excess of N2H4 referred to the concentration of molecular probe was added to the solution before the incubation. Longitudinal (T1) relaxation times were measured via an inversion recovery experiment using 10 inversions of duration ranging between 0.05×T1 and 10×T1. Relaxivity (r1) was determined from the slope of a plot of 1/T1 vs metal concentration for 4 concentrations.

[5] = target: bovine serum albumin (BSA) (Bos taurus, UniProt P02769); assay: Relaxivity measurements with BSA; type: binding; settings: 1.4 T, 37° C., BSA 10 mg/mL
Sequence of bovine serum albumin (BSA) (P02769 25-607): as above
Protocol: as §1

[6] = target: T2, BSA-ALD (oxidized bovine serum albumin containing allysine aldehyde groups) (Bos taurus, UniProt P02769); assay: Relaxivity measurements with BSA-Ald; type: binding; settings: 37° C.; for r1, +BSA-Ald / r1, Bound to BSA-Ald: 1.4 T; for r1, +BSA-Ald: BSA-Ald 10 mg/mL; for r1, Bound to BSA-Ald: protein-bound species after NaBH3CN and ultrafiltration
T2 construct: made in house; host or cells: no expression host: BSA oxidised chemically with sodium ascorbate, ferric chloride and H2O2, then desalted on PD-10
T2 sequence (P02769 25-607): as above
Protocol: Preparation of Allysine Containing Bovine Serum Albumin, BSA-ALD:
To a solution of bovine serum albumin (BSA) (100 mg) dissolved in phosphate buffered saline (4 mL, pH 7.4, 0.25 mM), sodium ascorbate (20 mg), ferric chloride (120 μL, 10 mM) and 20 μL H2O2 (30% w) were added. The reaction was stirred at 37° C. for 24 hours, and sodium ascorbate (20 mg) was added repeatedly every 8 hours. After the reaction, protein was purified using PD-10 Sephadex G25 desalting columns (GE Healthcare), eluted with PBS. Protein concentration was assessed using the ‘BCA Protein Assay Kit’ (Thermo Scientific). Protein carbonyl concentration was determined by ‘Protein Carbonyl Content Assay Kit’ (Sigmal-Aldrich).
as §2, §1

[7] = Biodistribution of manganese in healthy mice 60 minutes post-injection; type: in vivo, mouse; settings: 0.1 mmol/kg i.v.
From the text: To meet these requirements, the probes Mn-12, Mn-13 and Mn-14 were designed based on the stable Mn-1,4-DO2A chelate. […] This combination of stability, turn-on relaxivity, and low uptake in healthy liver indicate that Mn-12 is quite promising as a novel probe for liver fibrogenesis detection.

[8] = Reaction rates with butyraldehyde measured by HPLC-ICP-MS (Method B); type: physicochemical; settings: Method b: butyraldehyde 100 μM, probe 25 μM, pH 7.40
Protocol: Method B: Reaction Rates of Compounds with Butyraldehyde Measured by HPLC-ICP-MS
The reactions were conducted in pH 7.40 phosphate-buffered with butyraldehyde concentration of 100 μM and hydrazine probes at 25 μM. Concentrations of unreacted starting material and condensation products were determined at 10 min time intervals over 2 hours based on their relative integrations. The values were fit to a standard first order rate constant linear equation and the rate constant was extracted from the slope.
Reaction with Butyraldehyde Monitored by HPLC-ICP-MS
Reactions were conducted in pH 7.4 phosphate-buffered saline with butyraldehyde concentration of 100 μM and hydrazine probes at 25 μM. Concentrations of unreacted starting material and condensation products were determined based on their relative integrations at 12 min time intervals over 2 hours.

[9] = EGCG 100 mg/kg oral gavage daily for 11 days vs vehicle

Row | SMILES | k (second order rate constant) [2] [M⁻¹ s⁻¹] | r1, PBS [3] [mM⁻¹ s⁻¹] | r1, +BSA [5] [mM⁻¹ s⁻¹] | r1, +BSA-Ald [6] [mM⁻¹ s⁻¹] | r1, Bound to BSA-Ald [6] | other results
1 | O=C(O[C@@H]1Cc2c(O)cc(O)cc2O[C@@H]1c1cc(O)c(O)c(O)c1)c1cc(O)c(O)c(O)c1 [EGCG, epigallocatechin gallate] | – | – | – | – | – | lung to muscle ΔCNR after Gd-9 injection, day 21 vs day 10 ([1]; EGCG 100 mg/kg oral gavage daily for 11 days): significantly decreased; lung allysine content [1, 9]: significantly reduced; lung hydroxyproline (total collagen) [1, 9]: reduced
2 | NN1CCN(C(=O)CCOCCOCCOCCOCCNC(=O)CN2CCN(CC(=O)[O-])CCN(CC(=O)[O-])CC2)CC1.[Ga+3] [Ga-1] | 0.06 | – | – | – | – | –
3 | NC(Cn1cccc1)C(=O)NCCOCCOCCOCCNC(=O)CN1CCN(CC(=O)[O-])CCN(CC(=O)[O-])CC1.[Ga+3] (stereo not shown) [Ga-2] | 0.11 | – | – | – | – | –
4 | O=C([O-])CN1CCN(CC(=O)[O-])CCN(CC(=O)NCCOCCOCCOCCNC(=O)CN2C(=O)CSC2=S)CC1.[Ga+3] [Ga-4] | 0.34 | – | – | – | – | –
5 | NN1CCN(C(=O)CCC(C(=O)[O-])N2CCN(CC(=O)[O-])CCN(CC(=O)[O-])CCN(C(CCC(=O)N3CCNCC3)C(=O)[O-])CC2)CC1.[Gd+3] (stereo not shown) [Gd-11] | – | 6.2 | 6.2 | 7.6 | 13.7 mM⁻¹ s⁻¹ and 13.8 mM⁻¹ s⁻¹ | equilibrium binding to BSA^Ald (binding yield) (BSA-ALD): 19.2%; relaxivity in ECM ([4]; PBS, pH 7.4, 2 h, 37° C., 1.41T): 6.7 mM⁻¹ s⁻¹; relaxivity in ECM with 100-fold excess of hydrazine ([4]; aldehydes blocked with N2H4): 6.1 mM⁻¹ s⁻¹; increase of r1 in BSA^Ald compared to PBS value ([6]; 1.41 T): 23%
6 | CCCCN1CCN(CCCC(=O)N2CCN(N)CC2)CCN(CC(=O)[O-])CCN(CC(=O)[O-])CC1.[Mn+2] [Mn-13] | – | 1.6 | 1.9 | 2.3 | 6.2 mM⁻¹ s⁻¹ | Mn liver levels in healthy mice [7]: high Mn liver levels; also recorded: elevated levels; k (second order rate constant) [8]: 1.9 M⁻¹ s⁻¹
7 | NNC(=O)CCCN1CCN(CCCC(=O)NN)CCN(CC(=O)[O-])CCN(CC(=O)[O-])CC1.[Mn+2] [Mn-14] | – | 1.5 | 1.8 | 2.5 | 7.3 mM⁻¹ s⁻¹ | k (second order rate constant) [8]: 1.4 M⁻¹ s⁻¹
